Reference: patent US9844531B2, “Methods of maintaining and improving muscle function” (ABBOTT LABORATORIES, priority 2013, dated 2017)
“And” between values parts separate entries of the source, which are not always exact repeats. Identical values can stand only once. “Also recorded” adds a separate entry of the source.

Tests used:
VEGF = VEGF level after 8 weeks of dietary EGCg supplementation in aged SD rats (multi-analyte profiling); type: in vivo, Sprague Dawley rat; conditions: for VEGF: gastrocnemius muscle lysate, 22 mos at sacrifice
Experimental: (§1) Example 3 illustrates the effect of 8 weeks of dietary EGCg supplementation on skeletal muscle biomarkers in the aged Sprague Dawley (SD) rat model of sarcopenia. More particularly, gastrocnemius muscle lysates of aged SD rats administered EGCg were analyzed for changes in various skeletal muscle biomarkers.
(§2) In Vivo Study 1—Aged (25 Months Old) Vs. Adult (13 Months Old)-Male SD rats (12 months old; adult rats; Dataset A) and male SD rats (24 months old; aged rats; Dataset B) were purchased from Harlan (Indianapolis, Ind.). The rats were single-housed in cages with hardwood chip bedding and were exposed to a 12-hour light cycle. At receipt, rats had ad libitum access to natural chow (Teklad Global 18% Protein Rodent Diet, catalog #2018S, Harlan) and water during adaptation to the animal facility. Adult rats (Dataset A) were 13 months old at the time of sacrifice, and aged rats (Dataset B) were 25 months old at the time of sacrifice. The right gastrocnemius muscle of the rats were collected and flash-frozen on liquid nitrogen.
(§3) In Vivo Study 2—EGCg Supplementation-Male SD rats (19 months old) were purchased from Harlan (Indianapolis, Ind.). The rats were single-housed in cages with hardwood chip bedding and were exposed to a 12-hour light cycle. At receipt, rats had ad libitum access to purified diet AIN-93M (Research Diets, #D10012M) and water during adaptation to the animal facility. Subsequently, the rats were given ad libitum access to AIN-93M diet supplemented with EGCg-rich (>95%) Teavigo® at 200 mg/kg body weight (Dataset C) for 8 weeks.
as §3, with “Vivo Study 3—EGCg Supplementation-Male SD” for “Vivo Study 2—EGCg Supplementation-Male SD”, “access to either AIN-93M diet (Dataset D) or AIN-93M diet” for “access to AIN-93M diet”, “Teavigo® at 50 mg/kg body” for “Teavigo® at 200 mg/kg body”, “weight (Dataset E) for 8” for “weight (Dataset C) for 8”
(§4) Preparation of Muscle Lysates-Whole gastrocnemius muscles were collected from euthanized rats (Dataset A, Dataset B, Dataset C, Dataset D, and Dataset E) and flash-frozen on liquid nitrogen and stored in aluminum foil at −80° C. Subsequently, the gastrocnemius muscle samples were partially thawed on dry ice. Approximately 200 mg of tissue was obtained from each muscle sample by mechanical biopsy punch. The specimens were quickly pulverized on liquid nitrogen and transferred to a 15 mL conical tube and weighed. A mild, detergent-free lysis buffer (9×) was added to the dried specimen in the conical tube. 9× Lysis buffer (50 mM Tris.HCl, 2 mM EDTA, pH 7.4/NaOH) was supplemented with a mammalian protease inhibitor cocktail (Sigma-Aldrich, Inc.) at a 1:200 dilution and stored on ice. The specimens were then vortexed for 10 seconds ahead of homogenization at 25×1000 rpm for approximately 10 seconds. The lysate was vortexed again for 10 seconds and transferred to a 1.5 mL tube. Lysates were centrifuged/clarified for 5 minutes at 11000 rpm at 4° C. in a standard table-top Eppendorf centrifuge. Supernatant (1 mL) was aliquotted to a 2 mL cryotube and stored at −80° C. Lysates were analyzed by Myriad Rules Based Medicine (Austin, Tex.) on the RodentMAP® v.2.0 Antigens and Rat METABOLIC® multi-analyte profiling platforms.

interleukin-1A (IL1A) = test: IL1A level after 8 weeks of dietary EGCg supplementation in aged SD rats (multi-analyte profiling); type: in vivo, Sprague Dawley rat; conditions: for IL1A: gastrocnemius muscle lysate, 22 mos at sacrifice
Experimental: as §1, §2, §3
as §3, with “Vivo Study 3—EGCg Supplementation-Male SD” for “Vivo Study 2—EGCg Supplementation-Male SD”, “access to either AIN-93M diet (Dataset D) or AIN-93M diet” for “access to AIN-93M diet”, “Teavigo® at 50 mg/kg body” for “Teavigo® at 200 mg/kg body”, “weight (Dataset E) for 8” for “weight (Dataset C) for 8”
as §4

gastrocnemius muscle = test: Gastrocnemius muscle wet weight in the aged SD rat model of sarcopenia; type: in vivo, Sprague Dawley rat; conditions: 8 weeks
Experimental: (§5) Example 4 illustrates the effect of 8 weeks of dietary EGCg supplementation in the aged Sprague Dawley (SD) rat model of sarcopenia. More particularly, the level of myostatin in gastrocnemius muscle lysates of young SD rats (“young”), aged SD rats (“old”), and aged SD rats administered EGCg (“old-EGCg”) was analyzed and compared.
In Vivo Study—EGCg Supplementation-Male SD rats (20 months old) were purchased from Harlan (Indianapolis, Ind.). The rats were single-housed in cages with hardwood chip bedding and were exposed to a 12-hour light cycle. For 1 week, rats had ad libitum access to purified diet AIN-93M (Research Diets, #D10012M) and water during adaptation to the animal facility. The AIN-93M diet typically comprises about 13% (by weight) protein, about 73% (by weight) carbohydrate, and about 4% (by weight) fat, and has an energy content of about 3.77 kcal/gram. Subsequently, the rats were given ad libitum access to AIN-93M diet supplemented with EGCg (>95%) (Teavigo, DSM) at 200 mg/kg body weight (n=12) (“old-EGCg” or “EGCg supplemented”) or control AIN-93 diet (n=11) (“old” or “Control”) for 8 weeks.
as §4, with “rats, weighed,” for “rats (Dataset A, Dataset B, Dataset C, Dataset D, and Dataset E)”, “Lysates were centrifuged/clarified for 5 minutes at 11000 rpm at 4° C. in a standard table-top Eppendorf centrifuge. Supernatant (1 mL) was aliquotted to a 2 mL cryotube and stored at −80° C. Lysates were analyzed by Myriad Rules Based Medicine (Austin, Tex.) on the RodentMAP® v.2.0 Antigens and Rat METABOLIC® multi-analyte profiling platforms.” left out

myostatin = test: Western blot of myostatin in gastrocnemius muscle lysates of aged SD rats; type: in vivo, Sprague Dawley rat; conditions: EGCg 200 mg/kg body weight, 8 weeks
Experimental: as §5
In Vivo Study—EGCg Supplementation-Male SD rats (20 months old) were purchased from Harlan (Indianapolis, Ind.). The rats were single-housed in cages with hardwood chip bedding and were exposed to a 12-hour light cycle. For 1 week, rats had ad libitum access to purified diet AIN-93M (Research Diets, #D10012M) and water during adaptation to the animal facility. The AIN-93M diet typically comprises about 13% (by weight) protein, about 73% (by weight) carbohydrate, and about 4% (by weight) fat, and has an energy content of about 3.77 kcal/gram. Subsequently, the rats were given ad libitum access to AIN-93M diet supplemented with EGCg (>95%) (Teavigo, DSM) at 200 mg/kg body weight (n=12) (“old-EGCg” or “EGCg supplemented”) or control AIN-93 diet (n=11) (“old” or “Control”) for 8 weeks. […]
Western blot analysis was carried out using anti-myostatin antibodies (Anti-GDF8/Myostatin antibody-Cat.# ab996-Abcam). […] Blots were scanned by densitometry to quantitate differences. […]

[1] = test system: myostatin in C2C12 myotubes; test: Western blot of myostatin expression in serum starved C2C12 myotubes; type: cell-based; conditions: for Myostatin (% control): 24 hrs, NC = 100, No Serum = 315
Experimental: Example 5 illustrates the effect of EGCg on expression of myostatin in serum starved C2C12 myotubes. C2C12 myoblasts were passaged in DMEM supplemented with 10% fetal calf serum (FCS), 1% glutamine, and 1% penicillin-streptomycin under an atmosphere of 10% CO2 in air at 37° C. When the myoblasts reached about 80% confluency, they were differentiated into myotubes in DMEM containing 2% horse serum (HS), with medium changes every 2 days. Differentiation was complete in 5-7 days, and the myotubes remained viable for a further 4-5 days.
To induce protein degradation in the myotubes, HS-supplemented DMEM media was replaced with DMEM medium without any serum for 24 hrs, while the negative control group of myotubes (“NC”) was not deprived of serum (i.e., the NC group was re-fed with DMEM media containing 2% HS). Myotubes were treated with EGCg (10 μM and 25 μM) over this serum starvation period. Western blot analysis was carried out on cell lysates as described in Example 4.
FIG. 4 and Table 5 illustrate the expression of myostatin in the non-serum starved control cells (“NC”), serum starved control cells (“No Serum”), and EGCg treated serum starved cells (“No Serum+10 μM EGCg” and “No Serum+25 μM EGCg”). The densitometric analysis was based on three separate blots. Results are expressed as mean plus S.E.M., and statistical analysis between groups was determined by one-way ANOVA followed by Tukey's test. The difference from the “NC” group is indicated as “a” (p<0.01), while the difference from the “No Serum” group is indicated as “b” (p<0.01).

[2] = 8 weeks of dietary EGCg supplementation, aged SD rats
[3] = Dataset C, EGCg 200 mg/kg bw in diet, 8 weeks, Quantitative Assay I
[4] = Dataset E, EGCg 50 mg/kg bw in diet, 8 weeks, Quantitative Assay II
[5] = muscle, EGCg 50 mg/kg bw v. control diet, 22 mos, n.s.
[6] = serum, EGCg 200 mg/kg bw, 8 weeks, n.s.

Substance: epigallocatechin-3-gallate [EGCg]
- level of VEGF in gastrocnemius muscle (in words) (VEGF; [2]): significant increase
- VEGF (VEGF; [3]): 229 pg/mL
- VEGF (VEGF; [4]): 479 pg/mL
- VEGF % change Dataset E/Dataset D (VEGF; [5]): −5% (n.s.)
- VEGF, Serum, Dataset C (EGCg Supplemented - 22 mos.) v. Dataset B (25 mos.) (VEGF; [6]): −15% (n.s.)
- level of IL1A in gastrocnemius muscle (in words) (interleukin-1A (IL1A); [2]): significant decrease
- IL1A (interleukin-1A (IL1A); [3]): 14.3 pg/mL
- IL1A (interleukin-1A (IL1A); [4]): 28.0 pg/mL
- IL1A % change Dataset E/Dataset D (interleukin-1A (IL1A); [5]): −12% (n.s.)
- IL1A, Serum, Dataset C (EGCg Supplemented - 22 mos.) v. Dataset B (25 mos.) (interleukin-1A (IL1A); [6]): −8% (n.s.)
- gastrocnemius muscle wet weight compared to Control rats (in words) (gastrocnemius muscle; EGCg 200 mg/kg body weight): significant increase
- Muscle wet weight % change from control (gastrocnemius muscle; gastrocnemius, EGCg 200 mg/kg body weight in diet): +5.12%
- Muscle Wet Weight (grams) (gastrocnemius muscle; gastrocnemius, EGCg 200 mg/kg body weight in diet, n=12, p < 0.05 compared to Control): 3.00 ± 0.03 grams
- intramuscular myostatin levels compared to old rats without EGCg (in words) (myostatin; western blot): decrease
- Myostatin (% cage control) (myostatin; Old-EGCg rats (22 months old), single rats (ID 3, 6, 9), densitometry, Old rats 700-800): 80 % cage control and 140 % cage control and 120 % cage control
- Myostatin (% control) ([1]; No Serum + 10 μM EGCg): 55 % control
- Myostatin (% control) ([1]; No Serum + 25 μM EGCg): 43 % control
- myostatin levels compared to the No Serum group (in words) ([1]; serum starved C2C12 myotubes, EGCg 10 μM and 25 μM): significantly lower; also recorded: decrease
